Columns and labels:
human mGlu2 receptor = biological target: T1, human mGlu2 receptor (Homo sapiens, UniProt Q14416); experiment: [35S]GTPγS binding assay (mGluR2 negative allosteric modulation, glutamate ~EC80 60 μM); assay type: biochemical
T1 construct: expressed in transfected cells; host or cells: CHO cells
Method: 1) [^35S]GTPγS Binding Assay
[^35S]GTPγS Binding Assay
Total reaction volume was 200 μl. […] Membrane-bound radioactivity was counted in a Topcount.

Male Wiga Wistar rats = experiment: Reversal of LY-404039-induced decrease of palpebral opening in apomorphine-challenged rats (APO LY-404039); assay type: in vivo, rat; details: Rattus norvegicus, apomorphine challenged rats
Method: B) In Vivo Pharmacology 1) Reversal of LY-404039-Induced Decrease of Palpebral Opening in Apomorphine-Challenged Rats.
Male Wiga Wistar rats (Crl:WI; Charles River Germany; 220±40 g) were housed under standard laboratory conditions (21±2° C.; 50-65% relative humidity; light-dark cycle set at 12 h; lights on at 6.00 h) and fasted overnight prior to the start of the experiments (tap water remained available ad libitum). During the test period, they were housed in individual cages. Palpebral opening was scored every 5 min over the first hour after injection of apomorphine (1.0 mg/kg, i.v.) in animals either pretreated or not pretreated with LY-404039 (2.5 mg/kg, s.c.) at 1 h prior to the apomorphine injection. The animals were also pretreated with test compound or solvent at a predefined interval before apomorphine challenge. The score system was: (5) exophthalmos, (4) wide open, (3) open for three-quarters, (2) half open, (1) open for one-quarter, (0) closed. The scores for palpebral opening were cumulated over the 60-min observation period.
In animals receiving apomorphine alone the median palpebral opening is 43 whereas in animals receiving apomorphine and LY-404039, the median palpebral opening is 17.

rats = experiment: Reversal of the effect of the mGluR2 PAM JNJ-42153605-induced inhibition of scopolamine-induced hyperlocomotion (SCOP JNJ-42153605); assay type: in vivo, rat; details: Rattus norvegicus, rats, reversal criterion total distance >1500 cm
Summary of the method: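 Rats got test compound or vehicle 60 min pre-recording, JNJ-42153605 (20 mg/kg, i.v.) 30 min pre-recording, then scopolamine (0.16 mg/kg, i.v.) just before. Total distance over the first 30 min was video-tracked; all-or-none reversal criterion: total distance >1500 cm.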

Wiga rats = experiment: Induction of mydriasis (MYD); assay type: in vivo; details: Rattus norvegicus, pupil diameter >25 units, 1-3 h post-administration
Method: 3) Induction of Mydriasis
The pupil diameter of Wiga rats was measured with a microscopic micrometer (1 unit=1/24 mm). Criteria for drug-induced effects: pupil diameter >25 units for mydriasis (in controls: 1.9%) 1, 2 or 3 h post-administration of the test compound (wherein the maximum pupil diameter over the full 3 h period is reported).

Male Long Evans rats = experiment: V-maze test (PCP-disrupted visual-spatial working memory); assay type: in vivo, rat; details: Co. No. 8 at doses 0.16 and 0.31 mg/kg p.o. 4 h before test, PCP 0.75 mg/kg s.c. 30 min prior to test
Text: Data are reported as Mean±SEM, n=12/group; ANOVA with LSD-post hoc, p vs. familiar arm: *** p<0.001, *<0.05. In FIG. 1, veh means vehicle and CPD means Co. No. 8
The V-maze-test is a two-trial short term visual-spatial working memory task based on spontaneous exploration of a new and a familiar arm in a 2-arm maze (Embrechts et al. (2013) “Longitudinal characterization of the TauPS2APP mouse model of Alzheimer's disease in a two trial discrimination task of visuo-spatial recognition memory”, 45th European Brain and Behaviour Society Meeting 6-9 Sep. 2013, Munich, Abstract P202).
Male Long Evans rats (Janvier, France, body weight 280 to 295 g) were group housed in enriched individually ventilated cages and habituated to environmental conditions for 5 days. After acclimatization, animals were single housed for 4 days until testing. During this period animals were handled for 2 min per day and received sham dosing once a day for 3 days prior to the test. […] The animal's exploration of each arm was automatically quantified using Ethovision XT 7.0 (Noldus, The Netherlands). […] The time spent in the familiar and new arm respectively during the choice session was recorded for 5 min.
Co. No. 8 was evaluated in rats in a series of dose-response studies evaluating doses from 0.16 to 0.63 mg/kg.

T1 sequence (Q14416 19-872): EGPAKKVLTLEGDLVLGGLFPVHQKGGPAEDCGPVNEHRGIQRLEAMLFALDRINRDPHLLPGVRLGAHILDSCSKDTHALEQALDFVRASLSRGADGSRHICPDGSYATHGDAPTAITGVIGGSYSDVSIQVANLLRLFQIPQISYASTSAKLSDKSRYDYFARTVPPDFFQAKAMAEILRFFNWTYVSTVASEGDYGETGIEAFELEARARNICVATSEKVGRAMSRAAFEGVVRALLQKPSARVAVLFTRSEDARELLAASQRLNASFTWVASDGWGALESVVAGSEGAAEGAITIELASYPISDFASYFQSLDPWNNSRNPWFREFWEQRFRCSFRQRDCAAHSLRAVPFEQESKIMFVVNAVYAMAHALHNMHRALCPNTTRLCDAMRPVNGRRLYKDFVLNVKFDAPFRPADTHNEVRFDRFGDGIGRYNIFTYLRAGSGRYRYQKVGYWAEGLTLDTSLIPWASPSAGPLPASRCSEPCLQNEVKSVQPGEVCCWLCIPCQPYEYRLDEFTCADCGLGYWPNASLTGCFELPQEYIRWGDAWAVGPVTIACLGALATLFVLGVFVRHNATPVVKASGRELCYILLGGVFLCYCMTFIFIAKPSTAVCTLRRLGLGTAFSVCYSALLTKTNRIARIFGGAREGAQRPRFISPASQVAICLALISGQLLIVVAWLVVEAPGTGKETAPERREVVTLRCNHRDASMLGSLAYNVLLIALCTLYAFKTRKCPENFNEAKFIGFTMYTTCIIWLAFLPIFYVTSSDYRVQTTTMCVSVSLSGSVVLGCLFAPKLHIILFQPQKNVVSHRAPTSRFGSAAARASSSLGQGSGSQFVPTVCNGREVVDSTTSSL

Structure (SMILES): C[C@H]1CN(c2ccc(C(F)(F)F)cc2)C(=O)c2c(NC(=O)c3ccc(N)nc3)cnn21 [Co. No. 8, 6-Amino-N-[(7S)-7-methyl-4-oxo-5-[4-(trifluoromethyl)phenyl]-6,7-dihydropyrazolo[1,5-a]pyrazin-3-yl]pyridine-3-carboxamide]
- Emax (human mGlu2 receptor; maximal % inhibition relative to the control glutamate response (EC80 glutamate), read-out: GTPγS-hmGluR2 anGT Emax): 110%
- IC50 (human mGlu2 receptor; membranes from CHO cells transfected with human mGlu2 receptor, glutamate ~EC80 (60 μM), pIC50 = −log IC50 (M), read-out: GTPγS-hmGluR2 anGT pIC50 (converted)): 2.14e-09 M
- ED50 (Male Wiga Wistar rats; PO (oral route)): 0.19 mg/kg
- ED50 (Male Wiga Wistar rats; SC (subcutaneous route)): 0.34 mg/kg
- ED50 (rats; PO (oral route)): 0.13 mg/kg
- ED50 (rats; SC (subcutaneous route)): 0.13 mg/kg
- ED50 (Wiga rats; PO (oral route)): 8.7 mg/kg
- ED50 (Wiga rats; SC (subcutaneous route)): 7.1 mg/kg
- exploration of the new vs. the familiar arm in the V-maze (reversal of PCP deficit) (Male Long Evans rats): significantly reversed the PCP deficit
- melting point: 240.39 °C

Source: patent US10519162B2, “6,7-dihydropyrazolo[1,5-α]pyrazin-4(5H)-one compounds and their use as negative allosteric modulators of mGluR2 receptors” (Janssen Pharmaceutica NV, priority 2014, dated 2019)
